Consider one compound from patent US20070270421A1, “Novel pyridine Derivative and Pyrimidine Derivative (1)” (priority 2004, published 2007).

In the test the test system is Human umbilical vein endothelial cells (HUVECs). Briefly: Inhibitory activity against sandwich tube formation by vascular endothelial cells stimulated with hepatocyte growth factor. In kind it is cell-based. To be noted: HUVEC in collagen gel, 30 ng/ml HGF, fourth day, total tube length, read-out: IC50 (concentration necessary to inhibit the tube formation by 50%). The procedure:
Human umbilical vein endothelial cells (HUVECs) were isolated according to the reported method (Shin Seikagaku Jikken Koza, “Cell culturing techniques”, p 197-202), and then cultured in a 5% CO2 incubator (37° C.) using EGM-2 medium (purchased from Clonetics) until the cells reached confluency.
To each well of a 24-well plate was added 0.4 ml of an ice-cold mixture of collagen:5×RPMI1640:reconstitution buffer (all purchased from Nitta Gelatin, Inc.) at 7:2:1, followed by incubating in a 5% CO2 incubator (37° C.) for 40 min to allow the solution to gel. Then, each well was supplied with 1 ml of the cell suspension of HUVEC (1-1.2×10^5 cells were used, though the cell number varied slightly depending on the lot of the HUVEC to be used) diluted with a serum free medium for endothelial cell culture (SFM, purchased from GIBCO RBL) supplemented with 10 ng/ml of EGF, followed by culturing in a 5% CO2 incubator (37° C.) overnight. […] The tube formed in the collagen gel of each well was stained with MTT, and then the tube image was loaded in a computer (Macintosh) to determine the total length of the tube by an image analysis software “Angiogenesis quantification software” (purchased from Kurabo). The ratio of the total length of a tube formed in a well supplied with the test substance relative to a tube formed in a well supplied with no test substance was expressed as a percentage. […]

`O=C(Cc1ccc(F)cc1)NC(=S)Nc1ccc(Oc2ccnc(NC(=O)N3CCCC3)c2)c(F)c1` [Example 13, 4-(2-Fluoro-4-{3-[2-(4-fluorophenyl)acetyl]thioureido}phenoxy)-2-[(pyrrolidin-1-yl)carbonylamino]pyridine]: the IC50 was 130 nM.
